Broadly, the IC50 is the point on the concentration scale where inhibition reaches its midpoint.

IC50 data for 18 compounds are collected here from patent US11767322B2 (BRISTOL-MYERS SQUIBB COMPANY, priority 2020, dated 2023).

Where two headings read alike, the source gives them in different places.

In assay [1] the target is T1, His-GST-TVMV-hRIPK1(1-324) (Homo sapiens, UniProt Q13546).
T1 construct: The coding region of human RIPK1(1-324) flanked by NdeI site at 5′ end; made in house; host or cells: Spodoptera frugiperda Sf9 insect cells (baculovirus, Bac-to-Bac)
T1 sequence (Q13546 1-324): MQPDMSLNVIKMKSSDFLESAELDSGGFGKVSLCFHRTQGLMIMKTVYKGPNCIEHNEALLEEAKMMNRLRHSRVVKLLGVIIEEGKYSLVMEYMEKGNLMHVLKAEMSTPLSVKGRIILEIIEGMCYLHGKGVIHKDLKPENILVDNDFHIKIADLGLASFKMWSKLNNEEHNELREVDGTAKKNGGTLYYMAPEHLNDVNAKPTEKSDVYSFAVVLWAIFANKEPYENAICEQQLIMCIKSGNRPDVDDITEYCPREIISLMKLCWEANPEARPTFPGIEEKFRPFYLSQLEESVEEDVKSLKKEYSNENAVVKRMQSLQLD
Briefly: biochemical. The format is binding.

The subject of assay [2] is MLKL phosphorylation in HT29-L23 human colorectal adenocarcinoma cells. Briefly: MLKL phosphorylation high-content assay. Type of assay: cell-based.
Setting [3] is: HTRF probe displacement, 1 h at rt, read-out: RIPK1 IC50.
Where [4] appears, read: Homo sapiens, 6 h, read-out: pMLKL IC50, HT29-L23 cells, necroptosis induced with TNFα, SMAC mimetic and Z-VAD, 6 h, maximal inhibition defined by Nec1s.
[5] abbreviates: read-out: pMLKL IC50, HT29-L23 cells, necroptosis induced with TNFα, SMAC mimetic and Z-VAD, 6 h, maximal inhibition defined by Nec1s.

`Nc1nc2cc(-c3ccc(Cl)c(C(=O)NCC(F)(F)C(O)C4CCC(F)(F)CC4)c3F)ccn2n1` (centres unmarked) [Example 257, 3-(2-amino-[1,2,4]triazolo[1,5-a]pyridin-7-yl)-6-chloro-N-(3-(4,4-difluorocyclohexyl)-2,2-difluoro-3-hydroxypropyl)-2-fluorobenzamide]: the IC50 stood at 8.9 nM in assay [1] (setting [3]) and 5.9 nM in assay [2] (setting [4]).
Take `Nc1nc2cc(-c3ccc(Cl)c(C(=O)NCC(F)(F)C(O)c4ccc(Cl)cc4F)c3F)ccn2n1` (single isomer, unassigned) [Example 162, 3-(2-amino-[1,2,4]triazolo[1,5-a]pyridin-7-yl)-6-chloro-N-(3-(4-chloro-2-fluorophenyl)-2,2-difluoro-3-hydroxypropyl)-2-fluorobenzamide]: the IC50 in assay [1] (setting [3]) is 1.6 nM; in assay [2] (setting [5]), 3.1 nM.
In the case of `Cc1ccc(-c2ccn3nc(N)nc3c2)c(F)c1C(=O)NCCC(O)c1ccc(F)cc1` (centres unmarked) [Example 49, 3-(2-amino-[1,2,4]triazolo[1,5-a]pyridin-7-yl)-2-fluoro-N-(3-(4-fluorophenyl)-3-hydroxypropyl)-6-methylbenzamide], the IC50 in assay [1] (setting [3]) turned out to be 2.5 nM; in assay [1] (Table 22, compounds of the present invention, read-out: RPIK1 IC50), 2.5 nM; in assay [2] (setting [4]) it was 2.6 nM; in assay [2] (Homo sapiens, read-out: pMLKL IC50, Table 22, compounds of the present invention), 2.6 nM.
Consider `Nc1nc2cc(-c3ccc(Cl)c(C(=O)NCC(F)(F)C(O)c4cccc(Cl)c4F)c3F)ccn2n1` (single isomer, unassigned) [Example 170, 3-(2-amino-[1,2,4]triazolo[1,5-a]pyridin-7-yl)-6-chloro-N-(3-(3-chloro-2-fluorophenyl)-2,2-difluoro-3-hydroxypropyl)-2-fluorobenzamide], for which the 50% inhibitory concentration (IC50) in assay [1] (setting [3]) was determined as 0.1 nM; in assay [2] (setting [5]) it was 1.4 nM.
In the case of `Nc1nc2cc(-c3ccc(Cl)c(C(=O)NCC(F)(F)C(O)c4cc(F)ccc4F)c3F)ccn2n1` (single isomer, unassigned) [Example 176, 3-(2-amino-[1,2,4]triazolo[1,5-a]pyridin-7-yl)-6-chloro-N-(3-(2,5-difluorophenyl)-2,2-difluoro-3-hydroxypropyl)-2-fluorobenzamide], the figures for the IC50 in assay [1] (setting [3]) and in assay [2] (setting [5]) were 0.3 nM and 1.9 nM, respectively.
As to `Cc1ccc(-c2ccn3nc(N)nc3c2)c(F)c1C(=O)NCCC(O)c1ccc(C(F)(F)F)cc1` (centres unmarked) [Example 55, 3-(2-amino-[1,2,4]triazolo[1,5-a]pyridin-7-yl)-2-fluoro-N-(3-hydroxy-3-(4-(trifluoromethyl)phenyl)propyl)-6-methylbenzamide], the IC50 was 0.3 nM in assay [1] (setting [3]) and 0.9 nM in assay [2] (setting [4]).
Taken in the same sequence, the figures for `COC(=O)c1ccc(CCCNC(=O)c2c(Cl)ccc(-c3ccn4nc(N)nc4c3)c2F)cc1` [Example 273, methyl 4-(3-(3-(2-amino-[1,2,4]triazolo[1,5-a]pyridin-7-yl)-6-chloro-2-fluorobenzamido)propyl)benzoate] were 3.9 nM and 37 nM.
For `Cc1ccc(-c2ccn3nc(N)nc3c2)c(F)c1C(=O)NCC(F)(F)C(O)c1ccnc(C(F)(F)F)c1` (single isomer, unassigned) [Example 260, 3-(2-amino-[1,2,4]triazolo[1,5-a]pyridin-7-yl)-N-(2,2-difluoro-3-hydroxy-3-(2-(trifluoromethyl)pyridin-4-yl)propyl)-2-fluoro-6-methylbenzamide], the IC50 in assay [1] (setting [3]) was 8.4 nM; in assay [2] (setting [5]), 3.2 nM.
Regarding `[2H]C([2H])([2H])c1ccc(-c2ccn3nc(N)nc3c2)c(F)c1C(=O)NCC(F)(F)C(C)(O)c1ccc(Cl)cc1` (single isomer, unassigned) [Example 253, 3-(2-amino-[1,2,4]triazolo[1,5-a]pyridin-7-yl)-N-(3-(4-chlorophenyl)-2,2-difluoro-3-hydroxybutyl)-2-fluoro-6-(methyl-d3)benzamide], the IC50 stood at 2.4 nM in assay [1] (setting [3]) and 1.2 nM in assay [2] (setting [5]).
With `Cc1ccc(-c2ccn3nc(N)nc3c2)c(F)c1C(=O)NCCC(O)c1cccc(Cl)c1` (single isomer, unassigned) [Example 44, 3-(2-amino-[1,2,4]triazolo[1,5-a]pyridin-7-yl)-N-(3-(3-chlorophenyl)-3-hydroxypropyl)-2-fluoro-6-methylbenzamide], the IC50 in assay [1] (setting [3]) turned out to be 1.3 nM; in assay [2] (setting [5]), 2.5 nM.
With `Nc1nc2cc(-c3ccc(Cl)c(C(=O)NCCC(O)c4ccc(F)cc4)c3F)ccn2n1` (single isomer, unassigned) [Example 80, 3-(2-amino-[1,2,4]triazolo[1,5-a]pyridin-7-yl)-6-chloro-2-fluoro-N-(3-(4-fluorophenyl)-3-hydroxypropyl)benzamide], the IC50 in assay [1] (setting [3]) is 9 nM; in assay [2] (setting [4]), 27 nM.
As to `Nc1nc2cc(-c3ccc(Cl)c(C(=O)NCC(F)(F)C(O)c4ccc(F)cc4F)c3F)ccn2n1` (single isomer, unassigned) [Example 179, 3-(2-amino-[1,2,4]triazolo[1,5-a]pyridin-7-yl)-6-chloro-N-(3-(2,4-difluorophenyl)-2,2-difluoro-3-hydroxypropyl)-2-fluorobenzamide], the results for the IC50 in assay [1] (setting [3]) and in assay [2] (setting [5]) were 0.3 nM and 3.7 nM, respectively.
`Nc1nc2cc(-c3ccc(Cl)c(C(=O)NCC(F)(F)C(O)c4ccc(C(F)(F)F)cc4F)c3F)ccn2n1` (centres unmarked) [Example 165, 3-(2-amino-[1,2,4]triazolo[1,5-a]pyridin-7-yl)-6-chloro-N-(2,2-difluoro-3-(2-fluoro-4-(trifluoromethyl)phenyl)-3-hydroxypropyl)-2-fluorobenzamide]: the IC50 was 1.6 nM in assay [1] (setting [3]) and 2.8 nM in assay [2] (setting [5]).
As for `Nc1nc2cc(-c3ccc(Cl)c(C(=O)NCC(F)(F)C(O)c4ccc(Cl)cc4F)c3F)ccn2n1` (single isomer, unassigned) [Example 163, 3-(2-amino-[1,2,4]triazolo[1,5-a]pyridin-7-yl)-6-chloro-N-(3-(4-chloro-2-fluorophenyl)-2,2-difluoro-3-hydroxypropyl)-2-fluorobenzamide], the IC50 is 0.3 nM in assay [1] (setting [3]) and 1.3 nM in assay [2] (setting [5]).
Taken in the same sequence, the figures for `Nc1nc2cc(-c3ccc(Cl)c(C(=O)NCC(F)(F)C(O)c4cccc(Cl)c4)c3F)ccn2n1` (centres unmarked) [Example 192, 3-(2-amino-[1,2,4]triazolo[1,5-a]pyridin-7-yl)-6-chloro-N-(3-(3-chlorophenyl)-2,2-difluoro-3-hydroxypropyl)-2-fluorobenzamide] were 3.5 nM and 1.2 nM.
In the case of `Cc1ccc(-c2ccn3nc(N)nc3c2)c(F)c1C(=O)NCC(F)(F)C1(c2ccc(F)cc2)COC1` [Example 246, 3-(2-amino-[1,2,4]triazolo[1,5-a]pyridin-7-yl)-N-(2,2-difluoro-2-(3-(4-fluorophenyl)oxetan-3-yl)ethyl)-2-fluoro-6-methylbenzamide], the IC50 in assay [1] (setting [3]) is 15 nM; in assay [2] (setting [4]), 2.2 nM.
Taken in the same sequence, the figures for `Cc1ccc(C(O)C(F)(F)CNC(=O)c2c(Cl)ccc(-c3ccn4nc(N)nc4c3)c2F)cc1` (centres unmarked) [Example 173, 3-(2-amino-[1,2,4]triazolo[1,5-a]pyridin-7-yl)-6-chloro-N-(2,2-difluoro-3-hydroxy-3-(p-tolyl)propyl)-2-fluorobenzamide] were 0.9 nM and 0.9 nM.
As for `Nc1nc2cc(-c3ccc(Cl)c(C(=O)NCC(F)(F)C(O)c4cc(Cl)ccc4F)c3F)ccn2n1` (centres unmarked) [Example 181, 3-(2-amino-[1,2,4]triazolo[1,5-a]pryidin-7-yl)-6-chloro-N-(3-(5-chloro-2-fluorophenyl)-2,2-difluoro-3-hydroxypropyl)-2-fluorobenzamide], the figures for the IC50 in assay [1] (setting [3]) and in assay [2] (setting [5]) were 1.7 nM and 0.3 nM, respectively.
